The values below come from PMC6390472, “‘Second-generation’ 1,2,3-triazole-based inhibitors of Porphyromonas gingivalis adherence to oral streptococci and biofilm formation” (MedChemComm, 2019).

In data set [1] the test system is P. gingivalis. In words: Planktonic growth of P. gingivalis (O.D.600nm). It is filed as cell-based, P. gingivalis ATCC33277. The following applies: Porphyromonas gingivalis, read-out: Percent inhibition of: P. gingivalis (planktonic growth). As to the method: (§1) P. gingivalis ATCC33277 was grown in reduced trypticase soy broth (Difco) supplemented with 0.5 percent yeast extract, 1 μg mL^–1 menadione, and 5 μg mL^–1 hemin. Twenty five milliliters of medium were reduced for 24 h under anaerobic conditions by equilibrating in an atmosphere consisting of 10% CO2, 10% H2, and 80% N2. Following equilibration, P. gingivalis was inoculated in the medium and grown for 48 h at 37 °C under anaerobic conditions. S. gordonii DL-1 (1) was cultured aerobically without shaking in brain heart infusion (BHI) broth supplemented with 1 percent yeast extract for 16 hours at 37 °C. For some compounds that inhibited P. gingivalis adherence to S. gordonii, we determined their effect on planktonic growth of P. gingivalis and S. gordonii. The appropriate growth medium (10 ml) was supplemented with 10 μl of a 40 mM compound stock solution in DMSO. After inoculation, broth cultures were incubated as described above and compared to cultures grown in medium that was supplemented only with 0.1% DMSO. The cell density of each culture was determined by measuring the optical density at 600 nm (O.D.600nm) and the percent growth inhibition/stimulation was calculated using the following equation: [(O.D.600nm of the control/O.D.600nm of the culture grown in the presence of compound) – 1] × 100.

The test system of data set [2] is S. gordonii. In words: Planktonic growth of S. gordonii (O.D.600nm). It is filed as cell-based, S. gordonii DL-1. The following applies: Streptococcus gordonii, read-out: Percent inhibition of: S. gordonii (planktonic growth). As to the method:
as §1

In data set [3] the test system is P. gingivalis adherence to S. gordonii. In words: Biofilm model of P. gingivalis adherence to S. gordonii (confocal, green/red fluorescence ratio). It is filed as cell-based, P. gingivalis ATCC33277 / S. gordonii DL-1. The following applies: inhibition of P. gingivalis adherence to S. gordonii; concentration that reduced ratio of green to red fluorescence by 50%; tested 0–60 μM. How it is done: as §1
Two species biofilms were formed essentially as previously described.[39] To prepare bacterial cells for biofilm culture, 10 ml of an overnight S. gordonii culture was centrifuged at 5600 rpm for 5 min and the cell pellet was suspended in 1 mL sterile PBS. Subsequently, 20 μL of 5 mg ml^–1 hexidium iodide (Molecular Probes) was added to the cell suspension and incubated for 15 min with gentle shaking at room temperature in the dark. The labeled cells were centrifuged as described above, washed with phosphate-buffered saline (10 mM Na2HPO4, […], […], and 2.7 mM KCl, pH 7.2; [PBS]) and the cell pellet was suspended in PBS at a final O.D.600nm of 0.8. Similarly, 10 mL of a 48 h culture of P. gingivalis was centrifuged at 5600 rpm for 15 min, the cell pellet was suspended in 1 mL PBS and 20 μL of 5(6)-carboxyfluorescein N-hydroxysuccinimide ester (4 mg ml^–1, Molecular Probes, Inc.) was added. After incubation for 30 min with gentle shaking at room temperature in the dark, the suspension was centrifuged and washed as described above and suspended in PBS at a final O.D.600nm of 0.4. For biofilm cultures, 1 mL of labeled S. gordonii cells was added to each well of a 12-well microtiter plate (Greiner Bio-one) containing a circular coverslip (Fisher brand) and incubated in an anaerobic chamber with rotary shaking for 24 h at 37 °C. Unbound cells were removed by aspiration and 1 ml of labeled P. gingivalis cells containing the desired concentration of test compound was added and incubated under anaerobic conditions for 22 h at 37 °C. Test compounds were dissolved in dimethyl sulfoxide (DMSO) to generate 1000× stock solutions and were routinely tested over a final concentration range of 0–60 μM. 1 μL of the appropriate stock solution was added to each 1 mL aliquot of labeled P. gingivalis cells and incubated for 30 min at room temperature prior to adding the suspension to the microtiter plate wells. For control biofilms, 1 μL of DMSO was added to 1 mL of labeled P. gingivalis and incubated as described above.
To visualize P. gingivalis/S. gordonii biofilms, unbound P. gingivalis cells were removed by aspiration and coverslips were washed once with PBS. Biofilms were fixed by incubating the coverslips with 1 mL of 4% paraformaldehyde for 5 min followed by two washes with PBS. The coverslips were then removed, placed face down on a glass microscope slide containing a drop of antifade reagent (Life Technology) and sealed with nail polish. […]

Data set [4] has as its system TIGK cells. The data set is described as follows: Cellular ATP levels, CellTiterGlo. It is filed as cell-based, Human. The conditions noted are these: for ATP levels: 95 (5, 20, 40 μM), 111 (5, 20, 60 μM), 115 (5, 10, 20 μM), 122 (5, 20, 60 μM). As to the method: Human telomerase immortalized gingival keratinocytes (TIGKs) were provided by Dr. Richard Lamont (University of Louisville) and were authenticated by comparison to primary gingival epithelial cells for cell morphology, growth, cytokeratin expression and the expression of toll-like receptors. TIGKs were cultured at 37 °C in an atmosphere of 5% CO2 in Basal Medium Dermalife K complete kit with Supplements (LifeLine, Frederick, MD). Cultures were incubated for 5 days and attained >95% confluence.
Cell metabolic activity was assessed by quantifying total ATP levels in cell culture samples using CellTiterGlo reagent (Promega). TIGK and J774A.1 cells were cultured and incubated with compounds as described above, washed three times with sterile PBS and incubated with 100 μl of CellTiterGlo substrate for 2 min with shaking and for an additional 10 min without shaking. Total light production was measured using a Victor 3 multi-label plate reader (PerkinElmer) in luminometer mode. All samples were assayed in triplicate.

[5] abbreviates: 40 μM compound, cultures incubated overnight, vs 0.1% DMSO.

Where two headings read alike, the source gives them in different places. A value given as a limit tells only on which side of the number the result lay.

As for `COc1ccccc1-c1cn(-c2ccc(S(=O)(=O)Cc3nc(-c4ccc(F)cc4)c(-c4ccc(F)cc4)o3)cc2)nn1` [Compound 54], the inhibition at 40 µM is -3.4% in data set [1] (setting [5]) and -3.3% in data set [2] (setting [5]). Further, in data set [3], the IC50 turned out to be 21.2 µM.

On to `O=S(=O)(Cc1nc(-c2ccc(Cl)cc2)c(-c2ccc(Cl)cc2)o1)c1ccc(-n2cc(-c3ccc(F)cc3)nn2)cc1` [Compound 56], for which the figures for the inhibition at 40 µM in data set [1] (setting [5]) and in data set [2] (setting [5]) were -2.7% and 6.2 ± 8.8%, respectively. Further, in data set [3], the IC50 came out at 6.3 µM.

`COc1ccccc1-c1cn(-c2ccc(S(=O)(=O)Cc3nc(-c4ccc(Cl)cc4)c(-c4ccc(Cl)cc4)o3)cc2)nn1` [Compound 57] displayed a melting point of 236 to 238 °C. In addition, the IC50 in data set [3] came out at 20 µM.

In the case of `CCN(CC)c1nc(-c2cn(-c3ccc(-c4nc(-c5ccc(F)cc5)c(-c5ccc(F)cc5)o4)cc3)nn2)nc(N(CC)CC)n1` [Compound 93], the inhibition at 40 µM in data set [1] (setting [5]) is 2 ± 6.1%; in data set [2] (setting [5]), -2%. For the same compound, in data set [3], the IC50 is 9.4 µM.

For the compound `CCN(CC)c1nc(-c2cn(-c3ccc(-c4nc(-c5ccc(Cl)cc5)c(-c5ccc(Cl)cc5)o4)cc3)nn2)nc(N(CC)CC)n1` [Compound 95], the inhibition at 40 µM was 0.4 ± 6.1% in data set [1] (setting [5]) and -0.8% in data set [2] (setting [5]). In data set [3], the IC50 was 3.7 µM. Also, the ATP levels entry in data set [4] (18 h exposure) is given as “did not significantly reduce the levels of ATP”.

Turning to `Fc1ccc(-c2nc(-c3cccc(-n4cc(-c5nc(Nc6ccccc6F)nc(Nc6ccccc6F)n5)nn4)c3)oc2-c2ccc(F)cc2)cc1` [Compound 102], the inhibition at 40 µM in data set [1] (setting [5]) was -8.3%; in data set [2] (setting [5]) it was -0.6%. Besides, the IC50 in data set [3] is 5 µM.

For `Fc1ccc(-c2nc(-c3ccc(-n4cc(-c5nc(Nc6ccccc6F)nc(Nc6ccccc6F)n5)nn4)cc3)oc2-c2ccc(F)cc2)cc1` [Compound 103], the inhibition at 40 µM was -1.3% in data set [1] (setting [5]) and -8.6% in data set [2] (setting [5]). Further, in data set [3], the IC50 stood at 12.3 µM.

`Fc1ccccc1Nc1nc(Nc2ccccc2F)nc(-c2cn(-c3cccc(-c4nc(-c5ccco5)c(-c5ccco5)o4)c3)nn2)n1` [Compound 108]: in data set [3], the IC50 is more than 60 µM.

For the compound `Fc1ccccc1Nc1nc(Nc2ccccc2F)nc(-c2cn(-c3ccc(-c4nc(-c5ccco5)c(-c5ccco5)o4)cc3)nn2)n1` [Compound 109], in data set [3], the IC50 is more than 60 µM.

With `Fc1ccc(Nc2nc(Nc3ccc(F)cc3)nc(-c3cn(-c4ccccc4-c4nc(-c5ccccc5)c(-c5ccccc5)o4)nn3)n2)cc1` [Compound 110], in data set [3], the half-maximal inhibitory concentration (IC50) was more than 60 µM.

Turning to `Fc1ccc(Nc2nc(Nc3ccc(F)cc3)nc(-c3cn(-c4cccc(-c5nc(-c6ccccc6)c(-c6ccccc6)o5)c4)nn3)n2)cc1` [Compound 111], the inhibition at 40 µM in data set [1] amounted to 8.3 ± 3.6%; in data set [2] it was 2.9 ± 3.9%. Moreover, the IC50 in data set [3] was determined as 4.3 µM. Besides, the “Concentration with cytotoxic activity relative to IC50 for inhibition of adherence” value in data set [4] (60 μM vs IC50) is “approximately 15 fold”. In addition, in data set [4] (18 h exposure, 60 μM, p < 0.05 vs 0.1% DMSO), the “Reduction of ATP levels” value is given as “statistically significant”. In data set [4] (18 h exposure), the ATP levels entry was “dose-dependent reduction of ATP levels”.

For `Fc1ccc(Nc2nc(Nc3ccc(F)cc3)nc(-c3cn(-c4ccc(-c5nc(-c6ccccc6)c(-c6ccccc6)o5)cc4)nn3)n2)cc1` [Compound 112], the IC50 in data set [3] was more than 60 µM.

On to `Fc1ccc(Nc2nc(Nc3ccc(F)cc3)nc(-c3cn(-c4ccccc4-c4nc(-c5ccc(F)cc5)c(-c5ccc(F)cc5)o4)nn3)n2)cc1` [Compound 113], for which, in data set [3], the 50% inhibitory concentration (IC50) was found to be 49.2 µM.

With `Fc1ccc(Nc2nc(Nc3ccc(F)cc3)nc(-c3cn(-c4cccc(-c5nc(-c6ccc(F)cc6)c(-c6ccc(F)cc6)o5)c4)nn3)n2)cc1` [Compound 114], in data set [3], the IC50 is more than 60 µM.

Consider `Fc1ccc(Nc2nc(Nc3ccc(F)cc3)nc(-c3cn(-c4ccc(-c5nc(-c6ccc(F)cc6)c(-c6ccc(F)cc6)o5)cc4)nn3)n2)cc1` [Compound 115], for which the inhibition at 40 µM is -2.8% in data set [1] (setting [5]) and -0.6% in data set [2] (setting [5]). Moreover, in data set [3], the IC50 stood at 2.3 µM. In addition, in data set [4] (18 h exposure), the ATP levels entry is “did not significantly reduce the levels of ATP”.

With `Fc1ccc(Nc2nc(Nc3ccc(F)cc3)nc(-c3cn(-c4ccccc4-c4nc(-c5ccc(Cl)cc5)c(-c5ccc(Cl)cc5)o4)nn3)n2)cc1` [Compound 116], the IC50 in data set [3] is more than 40 µM.

As to `Fc1ccc(Nc2nc(Nc3ccc(F)cc3)nc(-c3cn(-c4cccc(-c5nc(-c6ccc(Cl)cc6)c(-c6ccc(Cl)cc6)o5)c4)nn3)n2)cc1` [Compound 117], in data set [3], the IC50 turned out to be 27.8 µM.

As for `Fc1ccc(Nc2nc(Nc3ccc(F)cc3)nc(-c3cn(-c4ccc(-c5nc(-c6ccc(Cl)cc6)c(-c6ccc(Cl)cc6)o5)cc4)nn3)n2)cc1` [Compound 118], the 50% inhibitory concentration (IC50) in data set [3] was 13.3 µM.

For the compound `COc1ccc(-c2nc(-c3ccccc3-n3cc(-c4nc(Nc5ccc(F)cc5)nc(Nc5ccc(F)cc5)n4)nn3)oc2-c2ccc(OC)cc2)cc1` [Compound 119], the IC50 in data set [3] was more than 60 µM.

As to `COc1ccc(-c2nc(-c3cccc(-n4cc(-c5nc(Nc6ccc(F)cc6)nc(Nc6ccc(F)cc6)n5)nn4)c3)oc2-c2ccc(OC)cc2)cc1` [Compound 120], the IC50 in data set [3] was more than 60 µM.

`COc1ccc(-c2nc(-c3ccc(-n4cc(-c5nc(Nc6ccc(F)cc6)nc(Nc6ccc(F)cc6)n5)nn4)cc3)oc2-c2ccc(OC)cc2)cc1` [Compound 121]: the IC50 in data set [3] was more than 60 µM.

For `Fc1ccc(Nc2nc(Nc3ccc(F)cc3)nc(-c3cn(-c4ccccc4-c4nc(-c5ccco5)c(-c5ccco5)o4)nn3)n2)cc1` [Compound 122], the inhibition at 40 µM in data set [1] (setting [5]) is 2.5 ± 5.4%; in data set [2] (setting [5]) it was -0.6%. Besides, the IC50 in data set [3] turned out to be 2.4 µM. In data set [4] (18 h exposure), the ATP levels entry was “did not significantly reduce the levels of ATP”.

Consider `Fc1ccc(Nc2nc(Nc3ccc(F)cc3)nc(-c3cn(-c4cccc(-c5nc(-c6ccco6)c(-c6ccco6)o5)c4)nn3)n2)cc1` [Compound 123], for which the concentration for half-maximal inhibition (IC50) in data set [3] came to 8 µM.

Regarding `Fc1ccc(Nc2nc(Nc3ccc(F)cc3)nc(-c3cn(-c4ccc(-c5nc(-c6ccco6)c(-c6ccco6)o5)cc4)nn3)n2)cc1` [Compound 124], in data set [3], the IC50 turned out to be 7.8 µM.

As for `CN(C)[C@@H]1C(O)=C(C(N)=O)C(=O)[C@@]2(O)C(O)=C3C(=O)c4c(O)cccc4[C@@](C)(O)[C@H]3C[C@@H]12` [Tet, tetracycline, reference compound], the values for the inhibition at 10 µg/mL in data set [1] (10 μg ml^–1 tetracycline) and in data set [2] (10 μg ml^–1 tetracycline) were 95.7 ± 1.2% and 94.2 ± 1.7%, respectively.
